Test results: US20180193289A1, “PROTOTYPICAL MOLECULAR PHARMACOLOGIC PROFILE OF FENDILINE AGAINST NEURODEGENERATIVE AND NEURODEVELOPMENTAL DISEASES” (priority 2016, published 2018)

Tests used:
[1] = target: T1, sigma-1(σ1) receptor (Mus musculus, UniProt O55242); test: sigma-1 agonistic/antagonistic activity in mice; type: in vivo
T1 construct: from tissue; host or cells: whole animal (mice, oral administration)

[2] = test system: GABA (A) receptors; test: allosteric modulation of GABA (A) receptors
[3] = test system: GABA (B) receptors; test: allosteric modulation of GABA (B) receptors
[4] = test system: N-methyl-D-aspartic acid (NMDA) glutamatergic receptors; test: allosteric modulation of NMDA receptors; details: σ1 induced
[5] = test system: sodium channels; test: allosteric modulation of sodium channels; details: σ1 induced
[6] = test system: cholinergic muscarinic receptors; test: modulation of muscarinic receptors; details: σ1 induced
[7] = test system: mice; test: Pentylenetetrazole (PTZ) induced behavioral effects and seizures in mice; type: in vivo; details: Fendiline 1.0 to 50 mg/kg (po), PTZ 10 to 70 mg/kg (ip)
Method: In good agreement with the above receptors affinities and its molecular pharmacological properties, Fendiline, at 1.0 to 50 mg/kg, (po), in mice antagonized all the behavioral effects (in mice) corresponding to the symptoms, in humans, announcing the development of the neurodegenerative and neurodevelopmental diseases, i.e., anxiety, fear, social disconnection, agressivity, compulsive reactions, hypermotility, stereotypic activity, pain, lethargy and seizures, appearing at various degrees according to the amplitude of the Glutamate/GABA imbalance and to the brain regions (Basal Ganglia, Hippocampus, Cortex) affected by the above imbalance. Indeed, all the above behavioral effects (obtained, in mice, by administration of the GABAergic antagonist Pentylenetetrazole (PTZ) at 10 to 70 mg/kg, intraperitoneal (ip): with 10 to 40 mg/kg (ip) giving fear, anxiety, social disconnection, and agressivity, hypermotility and stereotypies—the latter being better expressed by previous (reserpine induced) hypersensibilisation of the brain DA receptors—and seizures (obtained at 50 to 70 mg/kg (ip) of PTZ), were antagonized by Fendiline at 1.0 to 50 mg/kg (po).

[8] = test system: mice; test: PTZ clonic convulsions and fatal tonic crises in mice; type: in vivo
[9] = test system: mice; test: Maximal Electroshock tonic extension; details: mouse, in vivo
[10] = neuropathic pain animal models; type: in vivo; details: appropriate animal models

T1 sequence (O55242 whole entry): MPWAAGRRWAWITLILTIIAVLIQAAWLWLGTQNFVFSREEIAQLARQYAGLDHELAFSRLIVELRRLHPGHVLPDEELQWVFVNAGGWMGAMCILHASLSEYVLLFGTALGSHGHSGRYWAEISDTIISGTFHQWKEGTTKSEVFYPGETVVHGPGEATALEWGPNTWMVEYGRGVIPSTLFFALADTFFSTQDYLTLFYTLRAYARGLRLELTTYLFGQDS

Structure (SMILES): CC(NCCC(c1ccccc1)c1ccccc1)c1ccccc1 (stereo not shown) [Fendiline, 3,3-diphenyl-N-(1-phenylethyl) propan-1-amine]
- sigma-1 activity at low doses ([1]; 0,003 to 1.0 mg/kg per os (po), in mice): partial agonistic activity
- sigma-1 activity at higher doses ([1]; more than 1.0 mg/kg (po) in mice): antagonistic
- sigma-1 intrinsic activity ([1]; mouse, in vivo): low intrinsic activity
- modulation of GABA (A) receptors [2]: allosteric positive modulation
- modulation of GABA (B) receptors [3]: allosteric positive modulation
- modulation of NMDA glutamatergic receptors [4]: negative allosteric modulations
- modulation of sodium channels [5]: negative allosteric modulations
- modulation of cholinergic muscarinic receptors [6]: discreet negative modulation
- effect on PTZ induced behavioral effects (fear, anxiety, social disconnection, agressivity, hypermotility, stereotypies, seizures) [7]: antagonized
- protection against fatal tonic crises (tonic extensions), high doses of PTZ ([8]; PTZ more than 80 mg/kg (ip), in mice): did not protect
- protection against PTZ clonic convulsions ([8]; mice): did not protect
- protection against fatal tonic crises (tonic extensions), Maximal Electrochock [9]: did not protect
- effect against neuropathic pain [10]: analgesic effect
